{"source": "patent US8987212B2", "about": "“Oleanoyl peptide composition and method of treating skin aging” (priority 2007, dated 2015)", "key": {"Nitric Oxide (NO)": {"test_system": "Nitric Oxide (NO)", "assay": "Extracellular nitric oxide from LPS-challenged human neutrophils", "type": "cell-based", "settings": "for % activity NO expression against LPS control: ↓ = inhibition", "procedure": "(§1) Experimental observations were made in human neutrophil that were challenged with LPS. […] Rolipram at 100 μg/ml dose level was used as a standard drug to observe the authenticity and reproducibility of the experimental design.\nThe Oleanoyl peptide was also screened for NO and PGE2 expression."}, "Human osteosarcoma cells": {"test_system": "Human osteosarcoma cells", "assay": "Collagen enhancement by Sirius Red staining", "type": "cell-based", "settings": "at 1.25 ppm, 48 hrs, vs untreated cells", "procedure": "Collagen enhancement was determined by using Sirius Red stain that binds with a greater specificity to Collagen type I and Collagen type III of the extracellular matrix. The stain bound to the collagen is dissolved and the optical density (OD) is measured spectrophotometrically using a Fluostar optima microtiter plate reader at 544 nm. The OD of the stain bound to collagen is directly proportional to the collagen content in the cells.\nHuman osteosarcoma cells from human bone were used for collagen enhancement studies. The cells were seeded with a seeding density of 10000 cells per well of a 24 well plate. Confluent monolayers of cells were initially treated with varying non cytotoxic concentrations of Oleanoyl peptide and vehicle (control) in the culture medium. For each concentration, 4 replicates were maintained and the analysis was performed twice such that the ‘n’ value is 8. After sample treatment, the cells were incubated in a CO2 incubator for 48 hrs. The cells were then developed by Sirius red staining technique to analyze the collagen enhancement. The cells were washed extensively with PBS. The cells were fixed using Bouin's fluid containing 1.3% picric acid, 35% formaldehyde and glacial acetic acid in 15:5:1 ration by incubating with 1 ml of Bouin's fluid per well for 1 hr at RT. The fixative is then removed by suction with micropipette and the cells were washed under running tap water for 15 minutes. After air drying the culture plate, the cells were stained using 0.1% Sirius red stain in 1.3% picric acid. 1 ml per well Sirius red stain was added and the cells were incubated for 1 hr under mild shaking of 70 RPM at RT in Orbitek Shaker. The stain was then removed by suction and the cells were extensively washed with 0.01N HCl to remove unbound dye. The dye bound to collagen was then dissolved in 0.2 ml of 0.1N NaOH per well for 30 minutes under mild shaking of 70 RPM in Orbitek Shaker at RT. The dye was then transferred to 96 well microplate and the OD was read at 544 nm in Fluostar Optima microplate reader.\nThe percentage enhancement in collagen with respect to the untreated cells considering the OD of untreated cells as optimal under normal conditions is calculated as follows, % enhancement in […]=[(100/C)×T]−100 Where C=absorbance due to collagen in untreated cells\nT=absorbance due to collagen in sample treated cells"}, "[1]": {"biological_target": "porcine pancreatic elastase (Sus scrofa, UniProt P00772)", "sequence (P00772 27-266)": "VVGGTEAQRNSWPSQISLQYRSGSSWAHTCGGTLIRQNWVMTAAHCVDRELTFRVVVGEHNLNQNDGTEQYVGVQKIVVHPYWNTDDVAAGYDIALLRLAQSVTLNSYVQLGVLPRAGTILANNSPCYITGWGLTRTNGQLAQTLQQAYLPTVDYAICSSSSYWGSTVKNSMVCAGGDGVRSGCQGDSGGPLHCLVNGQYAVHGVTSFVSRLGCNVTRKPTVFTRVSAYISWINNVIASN", "assay": "EnzChek Elastase Assay, elastase inhibitory potential", "from_the_text": "The EnzChek kit contains DQelastin, fluorescein conjugated soluble bovine neck ligament elastin. This substrate is efficiently digested by elastase to yield highly fluorescent peptides. […] Elastase used for the assay is purified from porcine pancreas.\nT=absorbance due to elastase activity in the presence of inhibitor"}, "[2]": {"assay": "DPPH free radical scavenging assay", "procedure": "The DPPH assay is often used to evaluate the ability of antioxidants to scavenge free radicals which are known to be a major factor in biological damages caused by oxidative stress. This assay is known to give reliable information concerning the antioxidant ability of the tested compounds. The assay is based on the color change of the stable free radical DPPH from purple to yellow as the radical is quenched by the antioxidant.\nThe assay mixture tubes containing 1.5 ml of 0.1 mM DPPH methanolic solution and varying concentrations of the sample in a total volume of 3 ml were incubated at 37° C. for 30 minutes in a shaking water bath. The reduction in absorbance which is directly proportional to the radical scavenging is measured spectrophotometrically at 517 nm. […] The percentage of scavenging is calculated as follows, % scavenging=[(C−T)/C]×100 Where C=absorbance in the absence of inhibitor\nT=absorbance in the presence of inhibitor"}, "Interleukin-6 (IL-6)": {"test_system": "Interleukin-6 (IL-6)", "assay": "Extracellular IL-6 from LPS-challenged human neutrophils", "type": "cell-based", "settings": "for % activity IL-6 expression against LPS control: ↓ = inhibition", "procedure": "as §1"}, "[3]": {"test_system": "B16F1 mouse melanoma cells", "assay": "Melanin inhibition in α-MSH induced melanoma cells", "type": "cell-based", "procedure": "B16F1 mouse melanoma cells were seeded in a 6 well microtiter plate at a seeding density of 5000 cells per well in 2 ml DMEM medium per well. After 24 hours of incubation in a CO2 incubator, melanin production is induced by 0.1 nM ∝-MSH by replacing the medium with medium containing ∝-MSH. The cells were then treated with varying concentrations of sample (composition containing oleanoyl peptide and stilbenes/licorice extract/THC) over a period of 9 days with renewal of ∝-MSH containing medium and sample at regular intervals of 3 days. Control wells were maintained without sample treatment and only with the vehicle used for sample preparation. After the incubation period, the medium was removed and the cells were scraped and washed in PBS. Thereafter, melanin was extracted by 1N NaOH in boiling water bath for 5 minutes. The absorbance of the melanin extract was read at 405 nm in a microplate reader. The inhibitory effect of the sample is calculated based on the decrease of melanin formation.\nT=absorbance due to melanin in the presence of inhibitor"}, "[4]": {"biological_target": "Collagenase Type IV from Clostridium histolyticum", "settings": "Collagenase Type IV 0.2 U/ml, DQ gelatin, 30 minutes"}, "[5]": {"test_system": "Interleukin-1beta (IL-1β)", "assay": "Extracellular IL-1β from LPS-challenged human neutrophils", "type": "cell-based", "settings": "for % activity IL-1β expression against LPS control: ↓ = inhibition", "procedure": "as §1"}, "LTB4": {"test_system": "LTB4", "assay": "LTB4 inhibition (same procedure as TNF α)", "type": "cell-based, human", "settings": "at 0.625 μg/ml", "text": "The above procedure is also followed for determining LTB4 inhibition by Oleanoyl peptide. From the results tabulated in table 1, it is clear that Oleanoyl peptide is a better TNF α and LTB4 inhibitor."}}, "note": "Where a SMILES comes first, the peptide text is derived from it. The star is where a group is joined. X1 = CC1(C)CC[C@]2(C(=O)*)CC[C@]3(C)C(=CCC4[C@@]5(C)CC[C@H](O)C(C)(C)C5CC[C@]43C)C2C1", "data": [{"smiles": "C[C@@H](O)[C@H](NC(=O)[C@H](CCCCN)NC(=O)[C@]12CCC(C)(C)CC1C1=CCC3[C@@]4(C)CC[C@H](O)C(C)(C)C4CC[C@@]3(C)[C@]1(C)CC2)C(=O)N[C@H](C(=O)N[C@@H](CCCCN)C(=O)N[C@@H](CO)C(=O)O)[C@@H](C)O", "note": "(stereo partly drawn) [Oleanoyl peptide, Oleanoyl-Lys-Thr-Thr-Lys-Ser-OH] (X1-KTTKS-OH)", "values": [{"measurement": "Concentration of NO produced (μmol/ml) Mean ± S.E.", "setting": "Nitric Oxide (NO); test sample 0.125 μg/ml", "value": "42.77 ± 1.42", "unit": "µmol/mL"}, {"measurement": "Concentration of NO produced (μmol/ml) Mean ± S.E.", "setting": "Nitric Oxide (NO); test sample 0.25 μg/ml", "value": "41.21 ± 1.05", "unit": "µmol/mL"}, {"measurement": "Concentration of NO produced (μmol/ml) Mean ± S.E.", "setting": "Nitric Oxide (NO); test sample 0.5 μg/ml", "value": "39.25 ± 1.08", "unit": "µmol/mL"}, {"measurement": "Concentration of NO produced (μmol/ml) Mean ± S.E.", "setting": "Nitric Oxide (NO); test sample 1 μg/ml", "value": "34.12 ± 2.00", "unit": "µmol/mL"}, {"measurement": "Concentration of NO produced (μmol/ml) Mean ± S.E.", "setting": "Nitric Oxide (NO); test sample 2 μg/ml", "value": "30.21 ± 1.18", "unit": "µmol/mL"}, {"measurement": "% activity NO expression against LPS control", "setting": "Nitric Oxide (NO); test sample 0.125 μg/ml", "value": "3.51↓ %"}, {"measurement": "% activity NO expression against LPS control", "setting": "Nitric Oxide (NO); test sample 0.25 μg/ml", "value": "7.03↓ %"}, {"measurement": "% activity NO expression against LPS control", "setting": "Nitric Oxide (NO); test sample 0.5 μg/ml", "value": "11.45↓ %"}, {"measurement": "% activity NO expression against LPS control", "setting": "Nitric Oxide (NO); test sample 1 μg/ml", "value": "23.03↓ %"}, {"measurement": "% activity NO expression against LPS control", "setting": "Nitric Oxide (NO); test sample 2 μg/ml", "value": 31.85, "unit": "%"}, {"measurement": "% activity NO expression against LPS control", "setting": "Nitric Oxide (NO); test sample 2 μg/ml, listed as OP", "value": "31.85↓ %"}, {"measurement": "% activity NO expression against LPS control", "setting": "Nitric Oxide (NO); test sample 4 μg/ml", "value": "29.66↓ %"}, {"measurement": "enhancement in collagen", "setting": "Human osteosarcoma cells", "value": 17, "unit": "%"}, {"measurement": "IC50", "setting": "[1]", "value": 143, "unit": "µM"}, {"measurement": "Anti-oxidant activity by DPPH Method, % inhibition", "setting": "[2]; at 300 μg/ml", "value": 29, "unit": "% inhibition at 300"}, {"measurement": "Anti-oxidant activity by DPPH Method", "setting": "[2]; result in words", "value": "shows DPPH scavenging activity"}, {"measurement": "Concentration of IL-6 produced (pg/ml) Mean ± S.E.", "setting": "Interleukin-6 (IL-6); test sample 0.125 μg/ml", "value": "130.38 ± 2.11", "unit": "pg/mL"}, {"measurement": "Concentration of IL-6 produced (pg/ml) Mean ± S.E.", "setting": "Interleukin-6 (IL-6); test sample 0.25 μg/ml", "value": "123.92 ± 2.09", "unit": "pg/mL"}, {"measurement": "Concentration of IL-6 produced (pg/ml) Mean ± S.E.", "setting": "Interleukin-6 (IL-6); test sample 0.5 μg/ml", "value": "117.23 ± 2.84", "unit": "pg/mL"}, {"measurement": "Concentration of IL-6 produced (pg/ml) Mean ± S.E.", "setting": "Interleukin-6 (IL-6); test sample 1 μg/ml", "value": "106.81 ± 3.79", "unit": "pg/mL"}, {"measurement": "Concentration of IL-6 produced (pg/ml) Mean ± S.E.", "setting": "Interleukin-6 (IL-6); test sample 2 μg/ml", "value": "104.75 ± 5.31", "unit": "pg/mL"}, {"measurement": "Concentration of IL-6 produced (pg/ml) Mean ± S.E.", "setting": "Interleukin-6 (IL-6); test sample 4 μg/ml", "value": "101.11 ± 2.87", "unit": "pg/mL"}, {"measurement": "% activity IL-6 expression against LPS control", "setting": "Interleukin-6 (IL-6); test sample 0.125 μg/ml", "value": "8.33↓ %"}, {"measurement": "% activity IL-6 expression against LPS control", "setting": "Interleukin-6 (IL-6); test sample 0.25 μg/ml", "value": "12.87↓ %"}, {"measurement": "% activity IL-6 expression against LPS control", "setting": "Interleukin-6 (IL-6); test sample 0.5 μg/ml", "value": "17.58↓ %"}, {"measurement": "% activity IL-6 expression against LPS control", "setting": "Interleukin-6 (IL-6); test sample 1 μg/ml", "value": "24.90↓ %"}, {"measurement": "% activity IL-6 expression against LPS control", "setting": "Interleukin-6 (IL-6); test sample 2 μg/ml", "value": "26.35↓ %"}, {"measurement": "% activity IL-6 expression against LPS control", "setting": "Interleukin-6 (IL-6); test sample 4 μg/ml", "value": 28.03, "unit": "%"}, {"measurement": "% activity IL-6 expression against LPS control", "setting": "Interleukin-6 (IL-6); test sample 4 μg/ml, listed as OP", "value": "28.91↓ %"}, {"measurement": "reduction in melanin", "setting": "[3]; result in words, FIG. 15", "value": "no significant reduction in melanin"}, {"measurement": "Melanin inhibition IC50 (μg/ml), Individual active", "setting": "[3]; α-MSH induced, 9 days", "value": "Not significant"}, {"measurement": "Collagenase inhibition (IC50 μg/ml)", "setting": "[4]", "value": 119, "unit": "µg/mL"}, {"measurement": "Concentration of IL-1β produced (pg/ml) Mean ± S.E.", "setting": "[5]; test sample 0.125 μg/ml", "value": "130.79 ± 3.07", "unit": "pg/mL"}, {"measurement": "Concentration of IL-1β produced (pg/ml) Mean ± S.E.", "setting": "[5]; test sample 0.25 μg/ml", "value": "119.44 ± 2.23", "unit": "pg/mL"}, {"measurement": "Concentration of IL-1β produced (pg/ml) Mean ± S.E.", "setting": "[5]; test sample 0.5 μg/ml", "value": "109.72 ± 3.21", "unit": "pg/mL"}, {"measurement": "Concentration of IL-1β produced (pg/ml) Mean ± S.E.", "setting": "[5]; test sample 1 μg/ml", "value": "96.61 ± 3.63", "unit": "pg/mL"}, {"measurement": "Concentration of IL-1β produced (pg/ml) Mean ± S.E.", "setting": "[5]; test sample 2 μg/ml", "value": "102.08 ± 2.61", "unit": "pg/mL"}, {"measurement": "Concentration of IL-1β produced (pg/ml) Mean ± S.E.", "setting": "[5]; test sample 4 μg/ml", "value": "100.45 ± 3.78", "unit": "pg/mL"}, {"measurement": "% activity IL-1β expression against LPS control", "setting": "[5]; test sample 0.125 μg/ml", "value": "6.29↓ %"}, {"measurement": "% activity IL-1β expression against LPS control", "setting": "[5]; test sample 0.25 μg/ml", "value": "14.42↓ %"}, {"measurement": "% activity IL-1β expression against LPS control", "setting": "[5]; test sample 0.5 μg/ml", "value": "21.39↓ %"}, {"measurement": "% activity IL-1β expression against LPS control", "setting": "[5]; test sample 1 μg/ml", "value": 31.78, "unit": "%"}, {"measurement": "% activity IL-1β expression against LPS control", "setting": "[5]; test sample 1 μg/ml, listed as OP", "value": "30.78↓ %"}, {"measurement": "% activity IL-1β expression against LPS control", "setting": "[5]; test sample 2 μg/ml", "value": "26.86↓ %"}, {"measurement": "% activity IL-1β expression against LPS control", "setting": "[5]; test sample 4 μg/ml", "value": "28.03↓ %"}, {"measurement": "LTB4 inhibition, % inhibition", "setting": "LTB4", "value": 26, "unit": "%"}]}]}
